Reference: US6683047B1, “Method of inhibiting transcription utilizing nuclear receptors” (The Burnham Institute, priority 1990, dated 2004)

B1: RARγ: in vitro synthesized (cell-free translated) retinoic acid receptor γ protein (protein, UniProt P13631 1-454, looked up)
Retinoic acid receptor gamma: MATNKERLFAAGALGPGSGYPGAGFPFAFPGALRGSPPFEMLSPSFRGLGQPDLPKEMASLSVETQSTSSEEMVPSSPSPPPPPRVYKPCFVCNDKSSGYHYGVSSCEGCKGFFRRSIQKNMVYTCHRDKNCIINKVTRNRCQYCRLQKCFEVGMSKEAVRNDRNKKKKEVKEEGSPDSYELSPQLEELITKVSKAHQETFPSLCQLGKYTTNSSADHRVQLDLGLWDKFSELATKCIIKIVEFAKRLPGFTGLSIADQITLLKAACLDILMLRICTRYTPEQDTMTFSDGLTLNRTQMHNAGFGPLTDLVFAFAGQLLPLEMDDTETGLLSAICLICGDRMDLEEPEKVDKLQEPLLEALRLYARRRRPSQPYMFPRMLMKITDLRGISTKGAERAITLKMEIPGPMPPLIREMLENPEMFEDDSSQPGPHPNASSEDEVPGGQGKGGLKSPA
B2: RARβ: in vitro synthesized (cell-free translated) retinoic acid receptor β protein (protein, UniProt P10826 1-455, looked up)
Retinoic acid receptor beta: MTTSGHACPVPAVNGHMTHYPATPYPLLFPPVIGGLSLPPLHGLHGHPPPSGCSTPSPATIETQSTSSEELVPSPPSPLPPPRVYKPCFVCQDKSSGYHYGVSACEGCKGFFRRSIQKNMIYTCHRDKNCVINKVTRNRCQYCRLQKCFEVGMSKESVRNDRNKKKKETSKQECTESYEMTAELDDLTEKIRKAHQETFPSLCQLGKYTTNSSADHRVRLDLGLWDKFSELATKCIIKIVEFAKRLPGFTGLTIADQITLLKAACLDILILRICTRYTPEQDTMTFSDGLTLNRTQMHNAGFGPLTDLVFTFANQLLPLEMDDTETGLLSAICLICGDRQDLEEPTKVDKLQEPLLEALKIYIRKRRPSKPHMFPKILMKITDLRSISAKGAERVITLKMEIPGSMPPLIQEMLENSEGHEPLTPSSSGNTAEHSPSISPSSVENSGVSQSPLVQ

What was measured:
RARβ binding to RARE = target: T1, RARβ binding to RARE (Homo sapiens, UniProt P10826); assay: Gel retardation assay, effect on RARβ binding to RARE; conditions: bacterially produced cJun pre-incubated with RARβ
T1 construct: made in house; host or cells: in vitro translation (reticulocyte lysate)
T1 sequence (P10826 1-455): B2 Retinoic acid receptor beta
Method: In vitro synthesized RAR protein was incubated with ^32P-labelled DNA fragment containing one copy of RARE. The binding of RAR on RARE was analyzed by gel retardation assay. […] C represents the binding of unprogrammed reticulocyte lysate in FIG. 5. To test the effect of cJun protein on RAR binding, excess amount of bacterial expressed Jun protein was incubated with RAR at 37° C. for 15 minutes before the addition of DNA. When anti-cJun (a cJun) was used, it was incubated with Jun protein at room temperature for 45 minutes before mixing with RAR protein.
This inhibition was specific as it was prevented by pre-incubation of cJun with anti-Jun antibodies.

collagenase AP-1 site = assay: Gel retardation assay, binding to DNA fragment containing the collagenase AP-1 site; conditions: in vitro synthesized protein, 32P-labelled fragment
Method: In vitro synthesized glucocorticoid receptor (GR) and retinoic acid receptor (RAR) were incubated with ^32P-labelled DNA fragment derived from −73 COL-CAT by Hind III and Bam HI digestion. Protein-DNA complex was analyzed by gel retardation assay. Control represents the binding of unprogrammed reticulocyte lysate.
Gel retardation experiments were carried out with a 60 bp DNA fragment containing the collagenase AP-1 site.

[1] = test system: collagenase promoter lacking AP-1 site (-63Col-CAT); assay: -63Col-CAT reporter co-transfected with RARβ in HeLa cells; type: cell-based; conditions: presence or absence of RA
[2] = test system: collagenase promoter AP-1 site (RARβ); assay: -73Col-CAT reporter co-transfected with RARβ expression vector in HeLa cells, TPA induced CAT activity; type: cell-based
Method: The −73 Col CAT reporter gene was cotransfected into HeLa with an expression vector for RARβ/ε. Cells were grown in the presence of the indicated amounts of RA and/or TPA.

[3] = test system: TPA induced collagenase promoter activity (TRα); assay: -73 Col CAT reporter in CV-1 cells, T3 dependent repression by TRα; type: cell-based
Method: In addition, applicants have discovered that the thyroid hormone receptor, in the presence of Thyroid hormone, binds AP-1 through a protein/protein interaction and inhibits the transcription of AP-1 activated genes. Specifically, TRα represses TPA induced collagenase promoter activity in a T3 dependent fashion. The −73 Col CAT reporter gene was cotransfected into CV-1 cells with an expression vector for […]. Cells were grown in the presence of the indicated amounts of T3 and/or TPA.

[4] = target: T2, cJun binding to the AP-1 site (Homo sapiens, UniProt P05412); assay: Gel retardation assay, effect on cJun binding to the AP-1 site; conditions: one-fold or five-fold excess, 37° C. for 15 minutes
T2 construct: made in house; host or cells: cell-free (in vitro) translation or bacteria
T2 sequence (P05412 whole entry): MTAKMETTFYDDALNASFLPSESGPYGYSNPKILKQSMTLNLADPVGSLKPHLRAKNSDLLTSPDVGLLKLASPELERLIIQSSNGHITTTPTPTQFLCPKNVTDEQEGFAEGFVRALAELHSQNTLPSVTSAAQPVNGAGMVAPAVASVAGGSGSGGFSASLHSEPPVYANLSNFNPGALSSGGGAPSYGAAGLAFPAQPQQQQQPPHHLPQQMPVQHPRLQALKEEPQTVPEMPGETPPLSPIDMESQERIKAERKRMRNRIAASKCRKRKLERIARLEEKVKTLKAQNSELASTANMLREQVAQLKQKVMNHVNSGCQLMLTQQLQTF
Method: In vitro synthesized cJun protein was incubated with one-fold (1) or five-fold (5) excess of in vitro synthesized RARβ or RARγ protein at 37° C. for 15 minutes. The effect of RARβ or RARγ or cJun binding was analyzed by gel retardation assay.
The Inhibition of cJun binding to the AP-1 site was dependent on the amount of RARs used, and was also observed in response to pre-incubation with in vitro synthesized GR (FIG. 4). As shown for the GRs in Example VI, this in vitro inhibition of cJun binding was ligand independent. The inhibition of Jun binding activity is a specific effect of each receptor because pre-incubation of the cell-free translated RARβ with anti-RAR antibodies prevented this inhibition, while pre-incubation with anti-GR or preimmune serum had no effect. Likewise, the inhibitory activity of cell-free translated GR is inhibited by anti-GR antibodies, but not by anti-RAR or preimmune serum. […] We therefore investigated whether the binding of the heterodimers could also be inhibited by the RAR.

Molecule | binding to collagenase AP-1 site or synthetic AP-1 site (collagenase AP-1 site) | inhibition of cJun binding to the AP-1 site [4] | other results
cJun: bacterially produced or in vitro translated cJun protein, AP-1 component | specific binding | – | inhibition of RARβ DNA binding activity on RARE (RARβ binding to RARE): inhibited its DNA binding activity in a concentration dependent manner
CC1=C(/C=C/C(C)=C/C=C/C(C)=C/C(=O)O)C(C)(C)CCC1 [RA, retinoic acid] | – | – | effect on -63Col-CAT activity [1]: no effect; concentration required for maximal repression of TPA induced activity of -73 Col-CAT [2]: 10^−6 M; IC50 ([2]; Homo sapiens, read-out: half maximal inhibition of TPA induced activity of -73 Col-CAT by RARβ): 1 nM
N[C@@H](Cc1cc(I)c(Oc2ccc(O)c(I)c2)c(I)c1)C(=O)O [T3] | – | – | repression of TPA collagenase promoter activity [3]: dependant on the concentration of T3
GR: in vitro synthesized glucocorticoid receptor | did not bind | also observed | –
B1 | – | significant inhibition | –
B2 | did not bind | significant inhibition | –
